Like-named read-outs stand apart in the source and are kept apart here.
Columns and labels:
[1] = system: A549 (human lung carcinoma); design: method as in PMID 31237306; settings: cited from earlier work
[2] = system: LoVo (human colorectal adenocarcinoma); design: method as in earlier work; settings: cited from earlier work
[3] = system: MCF7 (human breast adenocarcinoma); design: method as in PMID 31237306; settings: cited from earlier work
[4] = system: HeLa (human cervix carcinoma); design: method as in PMID 31237306; settings: cited from earlier work
NHDF cells [5] = system: NHDF cells; design: method as in PMID 31237306; settings: cited from earlier work
A549 or HeLa lines = settings: cited from earlier work
A549 cell line = settings: read-out: IC50 value for A549 cell line; cited from earlier work
[6] = system: normal cell lines like MRC5, HEK293T, or HaCat; settings: cited from earlier work
apo-Tf = settings: cited from earlier work
[7] = system: HeLa (human cervix carcinoma); experiment: Cytotoxicity on HeLa cells, quantitative suspension test according to EN 14476; assay type: cell-based; settings: observed 4 days, aqua media
Description: (§1) Normal human dermal fibroblasts (NHDF) (PromoCell, C-12302) were used as normal cells and LoVo (human colorectal adenocarcinoma, ATCC® CCL-229™), A549 (human lung carcinoma, ATCC, No. CCL-185 TM), MCF-7 (human breast adenocarcinoma, ATCC, No. HTB-22^TM) and HeLa (human cervix carcinoma, ATCC, No. CCL-2 TM) were used as cancer cells. They were cultured in DMEM, DMEM–F12 or EMEM (Lonza, CA, USA). Media were supplemented with 10% FBS (Biological Industries, Kibbutz Beit-Haemek, Israel), 2 mM L-glutamine (Biological Industries, Israel), 100 U/mL of penicillin and 100 µg/mL of streptomycin (Sigma, Neustadt an der Weinstrasse, Germany).
(§2) The 100 μL of suspension of NHDF, A549, HeLa, LoVo, and MCF7 cells at a density of 4 × 10^4 cells mL^−1 were incubated in a 96-well polystyrene plate (NUNC, Denmark) for 24 h. Product test solutions were prepared in DMEM, DMEM–F12, or EMEM supplemented with additional 2% FBS and 2 mM L-glutamine. Solutions of the reagents at concentrations from 460 (for 1), 454 (2), […] (3), 1242 (Cu(NO3)2), 1732 (PTA=O), and 1440 µM (dmphen) to 4.60 × 10^−6, 4.54 × 10^−6, 4.69 × 10^−6, 1.24 × 10^−5, 1.73 × 10^−5, and 1.44 × 10^−5 µM, respectively, were prepared and transferred (100 μL) into cell culture units (wells of microtiter plates) containing monolayer of cells. Eight units were inoculated with each dilution. Plates were incubated in 37 °C, 5% CO2 and observed daily for 4 days for the development of cytotoxic effect, using an inverted microscope (Olympus Corp., Hamburg, Germany, Axio Observer, Carl Zeiss MicroImaging GmbH). Then the wells were washed in phosphate buffered saline (PBS) and stained using DAPI (4′,6-diamidino-2-phenylindole) and propidium iodide (Merck, Darmstadt, Germany). The study used the fact that DAPI is able to be combined with cellular DNA, permeate through the membrane of cell, rapidly enter the nucleus of living cells and bind with DNA to form a DAPI-DNA complex. […] In cell culture these are cells that are apoptotic or damaged by any physical or chemical agent. Therefore, if these two fluorochrome are given at the same time, DAPI will get to healthy cells faster, while propidium iodide will stain dead or dying cells. The calculation of the ratio of cells counted on a specific area, allows to determine the potency of a substance in inhibiting a specific biological function (IC50).

NHDF cells [8] = experiment: Cytotoxicity on normal human dermal fibroblasts, quantitative suspension test according to EN 14476 (DAPI/propidium iodide); assay type: cell-based; settings: observed 4 days, aqua media
Description: as §1, §2

[9] = system: LoVo (human colorectal adenocarcinoma); experiment: Cytotoxicity on LoVo cells, quantitative suspension test according to EN 14476; assay type: cell-based; settings: observed 4 days, aqua media
Description: as §1, §2

[10] = system: A549 (human lung carcinoma); experiment: Cytotoxicity on A549 cells, quantitative suspension test according to EN 14476; assay type: cell-based; settings: observed 4 days, aqua media
Description: as §1, §2

[11] = system: MCF7 (human breast adenocarcinoma); experiment: Cytotoxicity on MCF7 cells, quantitative suspension test according to EN 14476; assay type: cell-based; settings: observed 4 days, aqua media
Description: as §1, §2

[12] = read-out: IC50 value, cytotoxic effect on A549 or HeLa lines, A549 or HeLa

For N.N.[Cl][Pt][Cl] [Cisplatin], the IC50 [1] is listed as 33.3 ± 4.2 µM, the IC50 [2] is listed as 9.12 ± 0.005 µM and the IC50 [3] is listed as 33.3 ± 4.2 µM. The IC50 [4] was 16.6 ± 3.1 µM and the IC50 (NHDF cells [5]) was 16.6 ± 2.1 µM.

For “[Cu2(sal-D,L-glu)2(isoquinoline)2]∙2EtOH”, the IC50 (A549 or HeLa lines; [12]) is listed as greater than 100 µM.

In the case of [Cu2(sal-D,L-glu)2(imidazole)2], the IC50 (A549 or HeLa lines) is given as greater than 100 µM.

For COc1ccc(P(CO)c2ccc(OC)cc2)cc1.Cc1ccc2ccc3ccc(C)nc3c2n1.[Cu+].[I-] [[Cu(iodide)(dmphen)(P(p-OCH3-Ph)2CH2OH)]], the IC50 (A549 cell line) is given as 62 µM and the “concentration toxic for normal cell lines” value [6] is given as 32 to 43 µM.

In the case of [Cr+3].c1cnc2c(c1)ccc1cccnc12.c1cnc2c(c1)ccc1cccnc12.c1cnc2c(c1)ccc1cccnc12 [chromium(III)-phen], the “association constant, apo-Tf system” value (apo-Tf) is listed as 150000 M⁻¹.

In the case of CS(C)=O.[Cl-].[Cl-].[Cl-].[Cl-].[Ru+3].c1c[nH+]c[nH]1.c1c[nH]cn1 [NAMI-A, Imidazolium-trans-tetrachloro(dimethylsulfoxide)imidazoleruthenium(III)], the “association constant with apo-Tf” value (apo-Tf) is listed as 12800 M⁻¹.

In the case of [Cu(sal-5-met-L-glu)(H2O)]∙H2O, the IC50 (A549 or HeLa lines; [12]) is given as greater than 100 µM.

O=[N+]([O-])[O-].O=[N+]([O-])[O-].[Cu+2] [Cu(NO3)2, reference compound] gave an IC50 [7] of 19.1 ± 2.9 µM, an IC50 (NHDF cells [8]) of 310 ± 47 µM and an IC50 [9] of 38.8 ± 5.8 µM. It also gave an IC50 [10] of 155 ± 23 µM and an IC50 [11] of 155 ± 23 µM.

In the case of [Cu(EtOH)2(imidazole)4], the IC50 (A549 or HeLa lines) is listed as greater than 100 µM.

In the case of “[Cu(iodide)(dmphen)(P(p-OCH3-Ph)2CH2-SarGly)]”, the IC50 (A549 cell line) is given as greater than 100 µM.

Cc1ccc2ccc3ccc(C)nc3c2n1 [Dmphen, 2,9-dimethyl-1,10-phenanthroline] showed an IC50 ([7]; Homo sapiens, 96 h) of 720 ± 108 µM and an IC50 ([9]; Homo sapiens, 96 h) of 360 ± 54 µM.

Source: publication PMC7037393, “Synthesis, Structural, and Cytotoxic Properties of New Water-Soluble Copper(II) Complexes Based on 2,9-Dimethyl-1,10-Phenanthroline and Their One Derivative Containing 1,3,5-Triaza-7-Phosphaadamantane-7-Oxide” (Molecules, 2020)
